In patent US20200323954A1, “METHODS AND COMPOSITIONS FOR REDUCING GUT ISCHEMIA/REPERFUSION-INDUCED INJURY” (PanTheryx, Inc., priority 2019, published 2020):
“Also recorded” adds a separate entry of the source. Marks after values point to notes of the source that are not given here.

How the values were obtained:
AGS cells [1] = experiment: Lactate dehydrogenase (LDH) cell damage assay after H/R; type: cell-based, human
Method: (§1) Hypoxia (Ischemia)/Normoxia (Reperfusion) (H/R) protocols for in vitro studies: For all experiments AGS, Caco-2 and RIE1 cells were set up in plates as described in specific methods. Cells were used at 70-80% confluence for cell injury/death assessment and as confluent monolayers for permeability studies. To induce “ischemia”, cells were placed in a hypoxic incubator (2% 02) for specified time and to mimic reperfusion, cells were placed back in a normoxic (21% 02) incubator for specified time. All treatments were duplicated in a second set of identical plates under normoxic conditions throughout the same test period as controls. To determine optimum conditions for the in vitro studies, pilot studies were performed.
Lactate dehydrogenase (LDH) assay: Cell damage was assessed using the activity of LDH released into the cell culture medium. LDH is a cytosolic enzyme present in many different cell types. Plasma membrane damage releases LDH into the cell culture media. At the end of the H/R period, supernatant was collected from all wells and LDH activity determined using a Pierce LDH Cytotoxicity Assay Kit (Thermo Fisher Scientific, Hemel Hempstead, UK) following manufacturer's instructions. Results are expressed as LDH activity and presented as mean+/−SEM of six wells.
Example 1A: Dose response study: To examine the effect of PSTI on H/R-induced cell injury in vitro, cells were set up in 96 well plates and pre-incubated in SFM containing glucose, with or without 5, 10 or 15 μg/ml PSTI for 1 hour (i.e. PSTI pre-treatment). These concentrations of PSTI were chosen based on previous studies examining cell migration (Marchbank et al., 2007, Am J Pathol 171(5):1462-73). The medium was replaced with SFM without glucose and placed in the hypoxia incubator for 4 hours. […]
Example 1B: Efficacy of PSTI given pre-, during- or post-hypoxic period. […] Cell Viability (MTT assay) and cell damage (LDH assay) were assessed. […] Cell Viability (MTT assay) and cell damage (LDH assay) were assessed.

RIE1 cells = experiment: Apoptotic and protective pathways after H/R in RIE1 cells; type: cell-based, rat; settings: RIE1, Hyp 1 h/Rep 24 h + PSTI, mean +/− SEM
Method: as §1

AGS cells [2] = experiment: Cell viability (MTT) assay after hypoxia/reperfusion (H/R); type: cell-based, human; settings: for cell viability in the MTT assay: 4 h hypoxia + 24 h reperfusion
Method: as §1
Cell viability (MTT) assay: Cell viability following H/R was assessed using an MTT assay (3-(4,5-dimethylthiazol-2-yl)-2,5-diphenyltetrazolium bromide) according to Marshall et al., Growth Regul. 1995; 5(2):69-84. The principal of the assay is that viable cells contain NAD(P)H-dependent oxidoreductase enzymes which reduce the MTT reagent to formazan which can be measured spectrophotometrically. At the end of the H/R period, 5 mg/ml MTT in PBS was added to each well of the 96 well plates and incubated at 37° C. for 4 hours, the medium was replaced with 150 μl of DMSO and the absorbance measured at 490 nm. Cell viability was expressed as percentage of the equivalent normoxic control, all results are expressed as mean+/−SEM of six wells.
Example 1A: Dose response study: To examine the effect of PSTI on H/R-induced cell injury in vitro, cells were set up in 96 well plates and pre-incubated in SFM containing glucose, with or without 5, 10 or 15 μg/ml PSTI for 1 hour (i.e. PSTI pre-treatment). These concentrations of PSTI were chosen based on previous studies examining cell migration (Marchbank et al., 2007, Am J Pathol 171(5):1462-73). The medium was replaced with SFM without glucose and placed in the hypoxia incubator for 4 hours. At the end of the hypoxia period, medium was replaced with SFM containing glucose for 24 hours at normoxia for the reperfusion period.
Example 1B: Efficacy of PSTI given pre-, during- or post-hypoxic period. The potential benefits of giving PSTI prior to, during or following the hypoxic period were compared. Cells were either pre-treated with 10 μg/ml PSTI for the 1 hour before hypoxia (Pre), treated with 10 μg/ml PSTI during hypoxia (During) or treated with 10 μg/ml PSTI during the reperfusion stage (Post). Cell Viability (MTT assay) and cell damage (LDH assay) were assessed. Cells were pre-treated with 10 μg/ml PSTI for the 1 hour before hypoxia (Pre), at the time of the start of hypoxic period (During), or added at the start of the reperfusion stage (Post). Cell Viability (MTT assay) and cell damage (LDH assay) were assessed.

[3] = system: NSAID-induced gastric injury; settings: rats, PSTI administration; cited from earlier work
[4] = normoxia, PSTI 10 microgram per ml

In the case of “pancreatic secretory trypsin inhibitor (DSLGREAKCYNELNGCTKIYDPVCGTDGNTYPNECVLCFENRKRQTSILIQKSGPC; listed as Homo sapiens) [PSTI]”, the “reduction of the rise in LDH” value (AGS cells [1]; AGS, 4 h hypoxia + 24 h reperfusion, PSTI 10 μg/ml 1 h before hypoxia) is reported as 37%±2%, the “effect on cell damage (LDH activity) after H/R vs serum free medium” value (AGS cells [1]; PSTI added before H/R) is reported as “significantly decreased cell damage” and the “LDH of cells not exposed to H/R” value (AGS cells [1]; [4]) is reported as “no change in viability or LDH; also recorded: no change in % LDH levels”. The Baxα (RIE1 cells) was 97.6 +/− 0.01 ** $ % normoxic, the Bcl2 (RIE1 cells) was 49.3 +/− 1.91 ** $$ % normoxic and the “Caspase 3” value (RIE1 cells) was 112.3 +/− 2.70 * % normoxic. The “Caspase 9” value (RIE1 cells) was 120.6 +/− 17.02 * $ % normoxic, the Claudin 1 (RIE1 cells) was 75.6 +/− 2.1 ** $$ % normoxic and the HIF1α (RIE1 cells) was 144.1 +/− 0.17 ** $$ % normoxic. The ICAM1 (RIE1 cells) was 115.4 +/− 1.09 ** % normoxic, the VEGF (RIE1 cells) was 121.8 +/− 2.53 ** $$ % normoxic and the ZO1 (RIE1 cells) was 83.6 +/− 0.69 * $ % normoxic. The hSP70 (RIE1 cells) was 122.9 +/− 0.85 ** % normoxic, the “cell viability in the MTT assay” value (AGS cells [2]; AGS, PSTI 10 μg/ml 1 h before hypoxia (Pre), % of normoxic control, H/R without PSTI 52±2%) was 78±2% and the “cell viability in the MTT assay” value (AGS cells [2]; AGS, PSTI 10 μg/ml during hypoxia period) was 66±3%. For the same substance, the “cell viability in the MTT assay” value (AGS cells [2]; AGS, PSTI 10 μg/ml during the post-hypoxia period) was 49±1%, the “improvement of survival after H/R” value (AGS cells [2]; AGS, RIE1 and Caco-2 cells, hypoxia/reperfusion 4 h+24 h, PSTI 10 μg/ml prior or during hypoxic period, p<0.01) was 50% and the “optimum concentration for reducing cell death (MTT and LDH assays)” value (AGS cells [2]; PSTI 5, 10 or 15 μg/ml given 1 h prior to H/R) was 10 µg/mL. The “effect on cell viability / cell death after H/R vs serum free medium” value (AGS cells [2]; PSTI added before (or during) H/R) was “reduced hypoxia-reoxygenation-induced cell death; also recorded: significantly increased % cell viability”, the “cell viability of cells not exposed to H/R” value (AGS cells [2]; [4]) was “no change in viability or LDH; also recorded: no change in viability” and the NSAID-induced gastric injury [3] was “reduces NSAID-induced gastric injury”.
